{"source": "patent US20150305333A1", "about": "“USE OF GLUCOSAMINE AMIDES AS PLANT GROWTH AND YIELD ENHANCERS” (PIONEER HI-BRED INTERNATIONAL, INC., priority 2012, published 2015)", "key": {"Superior potatoes": {"tested_on": "Superior potatoes", "assay": "Potato field trial 2011: emergence, flowering, vigor, biomass", "format": "in vivo", "conditions": "for Crop Vigor (1-5 Scale): 3=same as untreated check, 5=visually superior; for Plant Biomass: 117 DAP, above ground", "experimental": "Seed treatments included an Untreated Control, NPG applied as a seed treatment, and NPG applied as a seed treatment followed by two foliar applications. Aqueous solutions of NPG were applied at a 10^−7 M concentration to seed pieces using a spray nozzle and left to soak on a plastic sheet for 20 min.\nFoliar NPG applications were performed 36 and 45 days after planting. Plants were sprayed using a four-nozzle hollow-cone boom containing ceramic disks and CO2 propellant at a speed of 4.5 km/h and 40 psi. The 36 day application utilized a 2.0 L mix size and spray rate of 200 L/ha water volume. The 45 day application utilized a 3.0 L mix size and spray rate of 300 L/ha water volume. Seeds pieces designated for use as the Untreated Control also received the fungicide maintenance treatment.\nThe seed pieces were beginning to sprout when planted on June 8th in a loam composed of 34% sand, 48% silt and 18% clay and 2.9% organic matter.\n(§1) Potatoes were planted at a rate of 25,000 seed pieces/ha to a depth of 20 cm and hilled using a tractor mounted potato hiller. Weeds were controlled using 3 L/ha of 40.6 wt % linuron. Insects were controlled using 250 ml/ha 18.4 wt % chlorantraniliprole and 80 g/ha 70 wt % acetamiprid insecticides. Disease was controlled using a tank mix of 1.6 kg/ha 75 wt % mancozeb M and 225 g/ha 60 wt % cymoxanil fungicides. Before harvest, plants were sprayed twice (seven days apart) with 39.5 wt % diquat dibromide herbicide at a rate of 2 L/ha. All of the products are industry standards and representative of what is used in commercial production.\nThe trial was conducted using a randomized complete block design with a plot size of 2 m by 8 m with a 100 cm row spacing, 30 cm plant spacing and four replications. Due to wet weather, the soil was damp and cloddy during the planting and hilling process.\nTreatments were compared on a “Vigor Scale” of 1 to 5 as follows:\nPotato Plant Biomass was determined at 117 DAP by harvesting five plants above ground level from each plot (Table 7)."}, "[1]": {"tested_on": "Shepody potatoes (Solanum tuberosum)", "assay": "Potato field trial 2010: emergence, flowering, marketable yield", "format": "in vivo", "conditions": "for Marketable Potato Yield for One Row of Plot: one 8 m row, fresh weight", "experimental": "A potato field trial was conducted to evaluate the effects of NPG on plant emergence, flowering and yield in Shepody potatoes (Solanum tuberosum) planted near Thorndale, Ontario, Canada, in 2010. Seed treatments included an Untreated Control, three concentrations of NPG and three concentrations of an LCO derived from Bradyrhizobium japonicum to serve as a positive control. The LCO was provided by Dr. Don Smith (McGill University, Montreal, Canada) using the basic method described in Soulemanov, A., et al., in Microbiol. Res., 157: 25-28 (2005). Aqueous solutions of NPG and LCO were applied at 10^−6M, 10^−7M and 10^−8M to seed pieces using a spray nozzle and left to soak on a plastic sheet for 20 minutes. The seed pieces were beginning to sprout when planted on June 8th in a loam composed of 41% sand, 39% silt and 20% clay and 4.5% organic matter.\nas §1, with “of 33,300” for “of 25,000”, “using three” for “using 3”, “% chlorantraniprole,” for “% chlorantraniliprole”, “and disease” for “and 80 g/ha 70 wt % acetamiprid insecticides. Disease”, “mancozeb” for “mancozeb M”, “products used” for “products”\nThe trial was conducted using a randomized complete block design with a plot size of 2 m by 8 m with a 100 cm row spacing, 30 cm plant spacing and four replications Due to wet weather, the soil was damp and cloddy during the planting and hilling process.\nMarketable potato yield was determined by harvesting one entire 8 m row of the plot (Table 3). The Untreated Control row with the highest emergence was harvested. Yields were not corrected for differences in emergence rates. The 10^−6 M and 10^−7 M NPG treatments and the 10^−8 M LCO treatment provided a statistically significant increase in marketable fresh weight yield compared to the Untreated Control."}, "[2]": {"conditions": "10^−7M seed treatment + Foliar, 20 DAP"}, "[3]": {"conditions": "10^−7M seed treatment + Foliar, 28 DAP"}, "[4]": {"conditions": "10^−7M seed treatment + Foliar, 40 DAP"}}, "data": [{"smiles": "CCCCCCC=CCCCCCCCC(=O)NC1C(OC)OC(CO)C(O)C1O", "note": "[NPG, Methyl 2-deoxy-2-N-(hexadece-9,10-cis-eneoyl)-β-D-glucopyranoside]", "values": [{"measurement": "Potato Emergence", "setting": "Superior potatoes; [2]", "result": 36, "unit": "a %"}, {"measurement": "Crop Vigor (1-5 Scale)", "setting": "Superior potatoes; [2]", "result": 4.6, "unit": "b"}, {"measurement": "Potato Emergence", "setting": "Superior potatoes; [3]", "result": 38, "unit": "a %"}, {"measurement": "Crop Vigor (1-5 Scale)", "setting": "Superior potatoes; [3]", "result": 3.9, "unit": "a"}, {"measurement": "Potato Flowering", "setting": "Superior potatoes; [4]", "result": 22, "unit": "b %"}, {"measurement": "Crop Vigor (1-5 Scale)", "setting": "Superior potatoes; [4]", "result": 3.6, "unit": "a"}, {"measurement": "Crop Vigor (1-5 Scale)", "setting": "Superior potatoes; 10^−7M seed treatment + Foliar, 49 DAP", "result": 4.1, "unit": "c"}, {"measurement": "Plant Biomass", "setting": "Superior potatoes; 10^−7M seed treatment + Foliar", "result": 2.56, "unit": "a kg/5 Plants"}, {"measurement": "Potato Emergence", "setting": "Superior potatoes; 10^−7M seed treatment, 20 DAP", "result": 30, "unit": "a %"}, {"measurement": "Crop Vigor (1-5 Scale)", "setting": "Superior potatoes; 10^−7M seed treatment, 20 DAP", "result": 2.9, "unit": "a"}, {"measurement": "Potato Emergence", "setting": "Superior potatoes; 10^−7M seed treatment, 28 DAP", "result": 39, "unit": "a %"}, {"measurement": "Crop Vigor (1-5 Scale)", "setting": "Superior potatoes; 10^−7M seed treatment, 28 DAP", "result": 2.9, "unit": "a"}, {"measurement": "Potato Flowering", "setting": "Superior potatoes; 10^−7M seed treatment, 40 DAP", "result": 0.0, "unit": "a %"}, {"measurement": "Crop Vigor (1-5 Scale)", "setting": "Superior potatoes; 10^−7M seed treatment, 40 DAP", "result": 3.1, "unit": "a"}, {"measurement": "Crop Vigor (1-5 Scale)", "setting": "Superior potatoes; 10^−7M seed treatment, 49 DAP", "result": 3.5, "unit": "b"}, {"measurement": "Plant Biomass", "setting": "Superior potatoes; 10^−7M seed treatment", "result": 2.35, "unit": "a kg/5 Plants"}, {"measurement": "Potato Emergence", "setting": "[1]; 10^−6M seed piece treatment, 15 DAP", "result": 16, "unit": "b %"}, {"measurement": "Potato Emergence", "setting": "[1]; 10^−6M seed piece treatment, 17 DAP", "result": 41, "unit": "b %"}, {"measurement": "Potato Emergence", "setting": "[1]; 10^−6M seed piece treatment, 21 DAP", "result": 68, "unit": "c %"}, {"measurement": "Potato Emergence", "setting": "[1]; 10^−6M seed piece treatment, 29 DAP", "result": 72, "unit": "c %"}, {"measurement": "Potato Flowering", "setting": "[1]; 10^−6M seed piece treatment, 42 DAP", "result": 19, "unit": "a %"}, {"measurement": "Potato Flowering", "setting": "[1]; 10^−6M seed piece treatment, 50 DAP", "result": 53, "unit": "ab %"}, {"measurement": "Marketable Potato Yield for One Row of Plot", "setting": "[1]; 10^−6M seed piece treatment", "result": 17.92, "unit": "b Kg/Plot"}, {"measurement": "Potato Emergence", "setting": "[1]; 10^−7M seed piece treatment, 15 DAP", "result": 9, "unit": "ab %"}, {"measurement": "Potato Emergence", "setting": "[1]; 10^−7M seed piece treatment, 17 DAP", "result": 30, "unit": "ab %"}, {"measurement": "Potato Emergence", "setting": "[1]; 10^−7M seed piece treatment, 21 DAP", "result": 48, "unit": "b %"}, {"measurement": "Potato Emergence", "setting": "[1]; 10^−7M seed piece treatment, 29 DAP", "result": 52, "unit": "b %"}, {"measurement": "Potato Flowering", "setting": "[1]; 10^−7M seed piece treatment, 42 DAP", "result": 20, "unit": "a %"}, {"measurement": "Potato Flowering", "setting": "[1]; 10^−7M seed piece treatment, 50 DAP", "result": 47, "unit": "ab %"}, {"measurement": "Marketable Potato Yield for One Row of Plot", "setting": "[1]; 10^−7M seed piece treatment", "result": 16.05, "unit": "b Kg/Plot"}, {"measurement": "Potato Emergence", "setting": "[1]; 10^−8M seed piece treatment, 15 DAP", "result": 13, "unit": "ab %"}, {"measurement": "Potato Emergence", "setting": "[1]; 10^−8M seed piece treatment, 17 DAP", "result": 30, "unit": "ab %"}, {"measurement": "Potato Emergence", "setting": "[1]; 10^−8M seed piece treatment, 21 DAP", "result": 45, "unit": "b %"}, {"measurement": "Potato Emergence", "setting": "[1]; 10^−8M seed piece treatment, 29 DAP", "result": 55, "unit": "b %"}, {"measurement": "Potato Flowering", "setting": "[1]; 10^−8M seed piece treatment, 42 DAP", "result": 11, "unit": "a %"}, {"measurement": "Potato Flowering", "setting": "[1]; 10^−8M seed piece treatment, 50 DAP", "result": 54, "unit": "ab %"}, {"measurement": "Marketable Potato Yield for One Row of Plot", "setting": "[1]; 10^−8M seed piece treatment", "result": 13.80, "unit": "ab Kg/Plot"}]}]}
